# Reference: ChEMBL document CHEMBL5291721, “A preclinical secondary pharmacology resource illuminates target-adverse drug reaction associations of marketed drugs” (Nat Commun, 2023)
# Experiments:
# Endothelin-1 receptor = target: T1, Endothelin-1 receptor (Homo sapiens, UniProt P25101)
# T1 sequence (P25101 whole entry): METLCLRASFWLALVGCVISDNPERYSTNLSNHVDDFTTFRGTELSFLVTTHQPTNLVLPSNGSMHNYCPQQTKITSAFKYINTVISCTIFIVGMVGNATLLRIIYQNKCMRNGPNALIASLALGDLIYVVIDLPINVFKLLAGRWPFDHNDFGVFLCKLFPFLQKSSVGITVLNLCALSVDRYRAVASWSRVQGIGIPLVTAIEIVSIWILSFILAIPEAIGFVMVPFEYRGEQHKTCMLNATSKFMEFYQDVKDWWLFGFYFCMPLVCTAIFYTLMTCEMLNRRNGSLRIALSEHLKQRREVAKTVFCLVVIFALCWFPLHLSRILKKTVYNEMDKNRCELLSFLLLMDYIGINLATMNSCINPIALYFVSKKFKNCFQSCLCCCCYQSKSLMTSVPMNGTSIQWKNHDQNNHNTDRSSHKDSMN
# [1] = target: T2, Gastrin/cholecystokinin type B receptor (Homo sapiens, UniProt P32239)
# T2 sequence (P32239 whole entry): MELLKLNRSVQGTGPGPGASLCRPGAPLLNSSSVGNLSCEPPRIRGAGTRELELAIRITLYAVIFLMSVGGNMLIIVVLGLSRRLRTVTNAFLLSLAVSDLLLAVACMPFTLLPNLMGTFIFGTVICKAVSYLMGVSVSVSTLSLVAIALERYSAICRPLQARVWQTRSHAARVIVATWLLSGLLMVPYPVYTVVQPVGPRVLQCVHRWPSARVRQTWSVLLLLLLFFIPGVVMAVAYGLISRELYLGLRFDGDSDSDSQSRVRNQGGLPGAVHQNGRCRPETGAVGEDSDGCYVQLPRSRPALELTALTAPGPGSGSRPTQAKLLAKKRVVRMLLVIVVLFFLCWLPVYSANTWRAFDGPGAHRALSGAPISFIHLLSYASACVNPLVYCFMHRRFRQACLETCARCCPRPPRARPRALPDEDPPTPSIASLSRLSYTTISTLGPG
# [2] = target: 5-hydroxytryptamine receptor 2B (Homo sapiens, UniProt P41595); type: functional, cell-based
# Sequence of 5-hydroxytryptamine receptor 2B (P41595 whole entry): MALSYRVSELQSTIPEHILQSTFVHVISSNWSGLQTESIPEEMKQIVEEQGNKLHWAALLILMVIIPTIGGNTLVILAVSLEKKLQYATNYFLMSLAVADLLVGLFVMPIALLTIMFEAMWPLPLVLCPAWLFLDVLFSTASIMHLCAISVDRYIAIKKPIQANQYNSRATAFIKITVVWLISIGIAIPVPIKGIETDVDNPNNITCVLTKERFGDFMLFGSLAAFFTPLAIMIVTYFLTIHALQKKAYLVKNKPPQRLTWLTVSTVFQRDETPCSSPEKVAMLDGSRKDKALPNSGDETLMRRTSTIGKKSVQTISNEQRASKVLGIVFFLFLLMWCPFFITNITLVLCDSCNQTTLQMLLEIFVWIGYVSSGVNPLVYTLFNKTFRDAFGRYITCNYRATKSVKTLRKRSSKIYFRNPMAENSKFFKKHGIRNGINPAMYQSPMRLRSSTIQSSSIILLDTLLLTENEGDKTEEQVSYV
# [3] = target: T3, Muscarinic acetylcholine receptor M2 (Homo sapiens, UniProt P08172); type: functional, cell-based
# T3 sequence (P08172 whole entry): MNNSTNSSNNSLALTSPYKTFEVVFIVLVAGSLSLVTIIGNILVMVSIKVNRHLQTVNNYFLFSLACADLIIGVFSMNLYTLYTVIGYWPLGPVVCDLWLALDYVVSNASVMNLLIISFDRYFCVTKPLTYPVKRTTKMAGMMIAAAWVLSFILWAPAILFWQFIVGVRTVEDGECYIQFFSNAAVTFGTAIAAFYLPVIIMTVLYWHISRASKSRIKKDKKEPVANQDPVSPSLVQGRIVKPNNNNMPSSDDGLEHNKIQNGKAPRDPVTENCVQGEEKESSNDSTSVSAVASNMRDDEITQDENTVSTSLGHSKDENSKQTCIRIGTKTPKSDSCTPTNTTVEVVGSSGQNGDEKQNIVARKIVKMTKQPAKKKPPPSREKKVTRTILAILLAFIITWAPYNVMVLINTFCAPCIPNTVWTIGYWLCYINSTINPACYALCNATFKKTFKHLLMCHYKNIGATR
# [4] = target: T4, Gastric inhibitory polypeptide receptor (Homo sapiens, UniProt P48546)
# T4 sequence (P48546 whole entry): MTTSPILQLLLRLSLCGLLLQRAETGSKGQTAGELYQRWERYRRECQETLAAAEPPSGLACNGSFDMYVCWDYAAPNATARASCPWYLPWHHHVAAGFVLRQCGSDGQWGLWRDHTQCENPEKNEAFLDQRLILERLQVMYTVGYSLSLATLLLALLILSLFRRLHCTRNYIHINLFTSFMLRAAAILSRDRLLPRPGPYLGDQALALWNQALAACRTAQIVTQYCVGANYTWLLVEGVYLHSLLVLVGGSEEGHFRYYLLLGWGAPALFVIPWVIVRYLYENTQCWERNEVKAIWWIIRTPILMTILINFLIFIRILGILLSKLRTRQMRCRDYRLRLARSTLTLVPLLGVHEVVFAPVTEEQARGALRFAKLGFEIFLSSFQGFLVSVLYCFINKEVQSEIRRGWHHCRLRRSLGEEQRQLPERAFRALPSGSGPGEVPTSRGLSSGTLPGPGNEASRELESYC
# [5] = target: T5, Corticotropin-releasing factor receptor 2 (Homo sapiens, UniProt Q13324)
# T5 sequence (Q13324 whole entry): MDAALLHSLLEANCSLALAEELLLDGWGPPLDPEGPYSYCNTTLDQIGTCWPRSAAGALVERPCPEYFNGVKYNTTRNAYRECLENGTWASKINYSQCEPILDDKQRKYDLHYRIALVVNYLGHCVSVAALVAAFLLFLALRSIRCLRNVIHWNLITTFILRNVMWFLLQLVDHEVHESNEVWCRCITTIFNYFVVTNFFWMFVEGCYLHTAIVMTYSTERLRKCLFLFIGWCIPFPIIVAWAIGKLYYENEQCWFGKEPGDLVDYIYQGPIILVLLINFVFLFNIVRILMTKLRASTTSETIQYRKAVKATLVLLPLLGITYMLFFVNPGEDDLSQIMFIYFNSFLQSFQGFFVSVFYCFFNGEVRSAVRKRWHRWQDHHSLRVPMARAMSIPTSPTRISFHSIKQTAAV
# Vasopressin V1a receptor = Vasopressin V1a receptor (Homo sapiens, UniProt P37288)
# Sequence of Vasopressin V1a receptor (P37288 whole entry): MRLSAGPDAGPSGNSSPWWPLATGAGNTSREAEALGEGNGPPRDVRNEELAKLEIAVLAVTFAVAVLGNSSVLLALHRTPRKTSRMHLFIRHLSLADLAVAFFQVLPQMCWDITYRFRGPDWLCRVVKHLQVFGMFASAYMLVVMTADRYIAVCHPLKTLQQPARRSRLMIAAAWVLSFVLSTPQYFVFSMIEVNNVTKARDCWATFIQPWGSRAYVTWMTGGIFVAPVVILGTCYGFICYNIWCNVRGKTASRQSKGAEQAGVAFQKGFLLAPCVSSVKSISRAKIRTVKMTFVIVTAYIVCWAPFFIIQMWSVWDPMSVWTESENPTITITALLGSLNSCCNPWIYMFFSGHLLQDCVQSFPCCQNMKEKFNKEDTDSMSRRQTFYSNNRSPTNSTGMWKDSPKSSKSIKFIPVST
# Estrogen receptor = target: T6, Estrogen receptor (Homo sapiens, UniProt P03372)
# T6 sequence (P03372 whole entry): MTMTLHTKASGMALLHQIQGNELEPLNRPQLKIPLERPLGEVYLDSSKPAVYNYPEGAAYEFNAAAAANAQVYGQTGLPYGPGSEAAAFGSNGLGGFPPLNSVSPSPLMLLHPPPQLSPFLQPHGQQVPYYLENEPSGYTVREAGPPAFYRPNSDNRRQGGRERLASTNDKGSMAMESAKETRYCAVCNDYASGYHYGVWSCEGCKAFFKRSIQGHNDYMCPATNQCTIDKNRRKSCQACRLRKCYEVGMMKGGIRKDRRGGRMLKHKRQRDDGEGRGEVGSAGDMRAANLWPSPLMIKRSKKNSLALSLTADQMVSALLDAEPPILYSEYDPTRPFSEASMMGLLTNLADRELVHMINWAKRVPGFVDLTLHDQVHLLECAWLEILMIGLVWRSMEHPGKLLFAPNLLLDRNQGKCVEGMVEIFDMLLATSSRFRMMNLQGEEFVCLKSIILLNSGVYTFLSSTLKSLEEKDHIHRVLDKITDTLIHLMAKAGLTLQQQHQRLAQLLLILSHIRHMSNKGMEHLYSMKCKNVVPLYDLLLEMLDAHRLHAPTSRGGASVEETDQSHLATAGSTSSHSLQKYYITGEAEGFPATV
# Also: assay procedure not described here.
AC50 (Endothelin-1 receptor),AC50 [1],AC50 [3],AC50 [4],AC50 [5],AC50 (Vasopressin V1a receptor),AC50 (Estrogen receptor),Compound,AC50 [2]
> 30 µM,> 30 µM,> 10 µM,> 30 µM,> 30 µM,> 30 µM,1.6 µM,CC12CC3CC(C)(C1)CC(N)(C3)C2 [MEMANTINE],–
> 30 µM,> 30 µM,> 10 µM,> 30 µM,> 30 µM,> 30 µM,> 30 µM,CCOC(=O)C1=C(C)NC(C)=C(C(=O)OC)C1c1cccc([N+](=O)[O-])c1 (stereo not drawn) [NITRENDIPINE],–
> 30 µM,> 30 µM,> 10 µM,> 30 µM,> 30 µM,> 30 µM,> 30 µM,[H]/N=C(/N)N/C(=N/[H])NCCc1ccccc1 [PHENFORMIN],–

Compound,AC50 (Endothelin-1 receptor),AC50 [1],AC50 [3],AC50 [4],AC50 [5],AC50 (Vasopressin V1a receptor),AC50 (Estrogen receptor),AC50 [2]
CCC(=O)O[C@]1(C(=O)SCF)[C@H](C)C[C@H]2[C@@H]3C[C@H](F)C4=CC(=O)C=C[C@]4(C)[C@@]3(F)[C@@H](O)C[C@@]21C [FLUTICASONE PROPIONATE],> 30 µM,> 30 µM,> 30 µM,> 30 µM,> 30 µM,> 30 µM,–,> 30 µM
